According to patent US6995263B2, “Indolyl and dihydroindolyl derivatives, their manufacture and use as pharmaceutical agents” (Hoffmann-La Roche Inc., priority 2003, dated 2006):

What was measured:
[1] = molecular target: T1, PPARδ (Homo sapiens, UniProt Q03181); assay: Radioligand binding assay (SPA), PPARδ receptor binding; settings: GST-PPARδ-LBD fusion protein, scintillation proximity counting
T1 construct: PPARδ (aa 139 to 442); made in house; host or cells: E. coli BL21(pLysS)
T1 sequence (Q03181 139-441 limits assumed): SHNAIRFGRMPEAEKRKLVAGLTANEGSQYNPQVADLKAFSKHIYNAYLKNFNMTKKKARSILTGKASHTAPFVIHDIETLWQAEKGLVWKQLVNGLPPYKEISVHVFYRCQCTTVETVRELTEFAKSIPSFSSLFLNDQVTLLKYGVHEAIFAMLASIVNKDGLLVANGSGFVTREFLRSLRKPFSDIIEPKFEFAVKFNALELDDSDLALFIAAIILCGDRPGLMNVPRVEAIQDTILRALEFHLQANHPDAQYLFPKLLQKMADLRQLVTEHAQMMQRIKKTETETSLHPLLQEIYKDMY
Text: (§1) Background information on the performed assays can be found in: Nichols J S et al. “Development of a scintillation proximity assay for peroxisome proliferator-activated receptor gamma ligand binding domain”, (1998) Anal. Biochem. 257:112–119.
(§2) Full-length cDNA clones for humans PPARδ and PPARα and mouse PPARγ were obtained by RT-PCR from human adipose and mouse liver cRNA, respectively, cloned into plasmid vectors and verified by DNA sequencing. Bacterial and mammalian expression vectors were constructed to produce glutathione-s-transferase (GST) and Gal4 DNA binding domain proteins fused to the ligand binding domains (LBD) of PPARδ (aa 139 to 442), PPARγ (aa 174 to 476) and PPARα (aa 167 to 469). To accomplish this, the portions of the cloned sequences encoding the LBDs were amplified from the full-length clones by PCR and then subcloned into the plasmid vectors. Final clones were verified by DNA sequence analysis.
(§3) Induction, expression, and purification of GST-LBD fusion proteins were performed in E. coli strain BL21(pLysS) cells by standard methods (Ref: Current Protocols in Molecular Biology, Wiley Press, edited by Ausubel et al.).
PPARδ receptor binding was assayed in HNM10 (50 mM Hepes, pH 7.4, 10 mM NaCl, 5 mM MgCl2, 0.15 mg/ml fatty acid-free BSA and 15 mM DTT). For each 96 well reaction a 500 ng equivalent of GST-PPARδ-LBD fusion protein and radioligand, e.g. 20000 dpm {2-methyl-4-[4-methyl-2-(4-trifluoromethyl-phenyl)-thiazol-5-yl-ditritiomethylsulfanyl]-phenoxy}-acetic acid, was bound to 10 μg SPA beads (PharmaciaAmersham) in a final volume of 50 μl by shaking. The resulting slurry was incubated for 1 h at RT and centrifuged for 2 min at 1300 g. […] Radioligand was added and the reaction incubated at RT for 1 h and scintillation proximity counting performed in the presence of test compounds was determined. All binding assays were performed in 96 well plates and the amount of bound ligand was measured on a Packard TopCount using OptiPlates (Packard). […]

[2] = molecular target: T2, PPARγ (Mus musculus, UniProt P37238); assay: Radioligand binding assay (SPA), PPARγ receptor binding; settings: GST-PPARγ-LBD fusion protein, scintillation proximity counting
T2 construct: PPARγ (aa 174 to 476); made in house; host or cells: E. coli BL21(pLysS)
T2 sequence (P37238 174-475 isoform P37238-2): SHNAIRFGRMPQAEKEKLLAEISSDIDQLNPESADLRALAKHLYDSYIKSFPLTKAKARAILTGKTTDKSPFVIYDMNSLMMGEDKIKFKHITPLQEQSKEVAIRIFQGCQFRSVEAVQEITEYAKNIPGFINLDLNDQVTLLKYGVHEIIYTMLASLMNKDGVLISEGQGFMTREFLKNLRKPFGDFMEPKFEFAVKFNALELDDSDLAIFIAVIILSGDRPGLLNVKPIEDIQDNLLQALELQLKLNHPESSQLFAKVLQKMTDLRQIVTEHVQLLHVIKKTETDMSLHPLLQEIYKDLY
Text: as §1, §2, §3
(§4) PPARγ receptor binding was assayed in TKE50 (50 mM Tris-HCl, pH 8, 50 mM KCl, 2 mM EDTA, 0.1 mg/ml fatty acid-free BSA and 10 mM DTT). For each 96 well reaction an 140 ng equivalent of GST-PPARγ-LBD fusion protein was bound to 10 μg SPA beads (PharmaciaAmersham) in a final volume of 50 ul by shaking. The resulting slurry was incubated for 1 h at RT and centrifuged for 2 min at 1300 g. The supernatant containing unbound protein was removed and the semidry pellet containing the receptor-coated beads was resolved in 50 ul of TKE. […] All binding assays were performed in 96 well plates and the amount of bound ligand measured on a Packard TopCount using OptiPlates (Packard). Nonspecific binding was determined in the presence of 10^−4 M unlabelled compound. […]

[3] = molecular target: T3, PPARα (Homo sapiens, UniProt Q07869); assay: Radioligand binding assay (SPA), PPARα receptor binding; settings: GST-PPARα-LBD fusion protein, scintillation proximity counting
T3 construct: PPARα (aa 167 to 469); made in house; host or cells: E. coli BL21(pLysS)
T3 sequence (Q07869 167-468 limits assumed): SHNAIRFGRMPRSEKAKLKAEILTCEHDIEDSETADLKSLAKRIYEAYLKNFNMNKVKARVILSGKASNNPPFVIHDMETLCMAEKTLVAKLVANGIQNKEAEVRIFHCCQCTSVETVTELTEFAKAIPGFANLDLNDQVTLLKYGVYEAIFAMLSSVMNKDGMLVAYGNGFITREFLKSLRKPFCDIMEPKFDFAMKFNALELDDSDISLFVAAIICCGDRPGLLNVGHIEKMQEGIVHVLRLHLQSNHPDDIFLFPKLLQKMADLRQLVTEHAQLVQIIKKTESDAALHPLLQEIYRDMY
Text: as §1, §2, §3
as §4, with “PPARα receptor” for “PPARγ receptor”, “of GST-PPARα-LBD” for “of GST-PPARγ-LBD”, “50 μl” for “50 ul”

| IC50 [1] [nM] | IC50 [2] [nM] | IC50 [3] [nM] | Structure (SMILES) |
| --- | --- | --- | --- |
| 83 | > 10000 | 1320 | Cc1nc(-c2ccc(C(F)(F)F)cc2)ncc1COc1ccc2c(ccn2CC(=O)O)c1 [Example 2, {5-[4-Methyl-2-(4-trifluoromethyl-phenyl)-pyrimidin-5-ylmethoxy]-indol-1-yl}-acetic acid] |
| 17 | > 10000 | 1580 | Cc1nc(-c2ccc(C(F)(F)F)cc2)ccc1COc1ccc2c(c1)N(CC(=O)O)CC2 [Example 6, {6-[2-Methyl-6-(4-trifluoromethyl-phenyl)-pyridin-3-ylmethoxy]-2,3-dihydro-indol-1-yl}-acetic acid] |
| 1 | > 10000 | 211 | O=C(O)Cn1ccc2ccc(OCc3cnc(-c4ccc(C(F)(F)F)cc4)nc3C3CC3)cc21 [Example 7, {6-[4-Cyclopropyl-2-(4-trifluoromethyl-phenyl)-pyrimidin-5-ylmethoxy]-indol-1-yl}-acetic acid] |
